According to US7977322B2 (Vertex Pharmaceuticals Incorporated, priority 2004, dated 2011):
pEC50: −log10 of the molar value.

Target: T1, ΔF508-CFTR (Homo sapiens, UniProt P13569, DEL508-508)
T1 construct: expressed in transfected cells
Test: Membrane potential optical (FRET/VIPR) assay, identification of correction compounds
Type: cell-based
Settings: Table 3, assay not given; for Emax: read-out: % Activity / % Efficacy (relative efficacy)
Source text: I) Membrane Potential Optical Methods for Assaying ΔF508-CFTR Modulation Properties of Compounds
These voltage sensitive assays are based on the change in fluorescence resonant energy transfer (FRET) between the membrane-soluble, voltage-sensitive dye, DiSBAC2(3), and a fluorescent phospholipid, CC2-DMPE, which is attached to the outer leaflet of the plasma membrane and acts as a FRET donor. Changes in membrane potential (Vm) cause the negatively charged DiSBAC2(3) to redistribute across the plasma membrane and the amount of energy transfer from CC2-DMPE changes accordingly. The changes in fluorescence emission were monitored using VIPR™ II, which is an integrated liquid handler and fluorescent detector designed to conduct cell-based screens in 96- or 384-well microtiter plates.
Identification of Correction Compounds
To identify small molecules that correct the trafficking defect associated with ΔF508-CFTR; a single-addition HTS assay format was developed. The cells were incubated in serum-free medium for 16 hrs at 37° C. in the presence or absence (negative control) of test compound. As a positive control, cells plated in 384-well plates were incubated for 16 hrs at 27° C. to “temperature-correct” ΔF508-CFTR. The cells were subsequently rinsed 3× with Krebs Ringers solution and loaded with the voltage-sensitive dyes. To activate ΔF508-CFTR, 10 μM forskolin and the CFTR potentiator, genistein (20 μM), were added along with Cl^− free medium to each well. The addition of Cl^− free medium promoted Cl^− efflux in response to ΔF508-CFTR activation and the resulting membrane depolarization was optically monitored using the FRET-based voltage-sensor dyes.
• Bath Solution #1: (in mM) NaCl 160, KCl 4.5, CaCl2 2, MgCl2 1, HEPES 10, pH 7.4 with NaOH. • Chloride-free bath solution: Chloride salts in Bath Solution #1 are substituted with gluconate salts. • CC2-DMPE: Prepared as a 10 mM stock solution in DMSO and stored at −20° C. • DiSBAC2(3): Prepared as a 10 mM stock in DMSO and stored at −20° C.
NIH3T3 mouse fibroblasts stably expressing ΔF508-CFTR are used for optical measurements of membrane potential. The cells are maintained at 37° C. in 5% CO2 and 90% humidity in Dulbecco's modified Eagle's medium supplemented with 2 mM glutamine, 10% fetal bovine serum, 1×NEAA, β-ME, 1×pen/strep, and 25 mM HEPES in 175 cm^2 culture flasks. For all optical assays, the cells were seeded at 30,000/well in 384-well matrigel-coated plates and cultured for 2 hrs at 37° C. before culturing at 27° C. for 24 hrs. for the potentiator assay.

T1 sequence (P13569 with tags, fused parts or gaps DEL508-508): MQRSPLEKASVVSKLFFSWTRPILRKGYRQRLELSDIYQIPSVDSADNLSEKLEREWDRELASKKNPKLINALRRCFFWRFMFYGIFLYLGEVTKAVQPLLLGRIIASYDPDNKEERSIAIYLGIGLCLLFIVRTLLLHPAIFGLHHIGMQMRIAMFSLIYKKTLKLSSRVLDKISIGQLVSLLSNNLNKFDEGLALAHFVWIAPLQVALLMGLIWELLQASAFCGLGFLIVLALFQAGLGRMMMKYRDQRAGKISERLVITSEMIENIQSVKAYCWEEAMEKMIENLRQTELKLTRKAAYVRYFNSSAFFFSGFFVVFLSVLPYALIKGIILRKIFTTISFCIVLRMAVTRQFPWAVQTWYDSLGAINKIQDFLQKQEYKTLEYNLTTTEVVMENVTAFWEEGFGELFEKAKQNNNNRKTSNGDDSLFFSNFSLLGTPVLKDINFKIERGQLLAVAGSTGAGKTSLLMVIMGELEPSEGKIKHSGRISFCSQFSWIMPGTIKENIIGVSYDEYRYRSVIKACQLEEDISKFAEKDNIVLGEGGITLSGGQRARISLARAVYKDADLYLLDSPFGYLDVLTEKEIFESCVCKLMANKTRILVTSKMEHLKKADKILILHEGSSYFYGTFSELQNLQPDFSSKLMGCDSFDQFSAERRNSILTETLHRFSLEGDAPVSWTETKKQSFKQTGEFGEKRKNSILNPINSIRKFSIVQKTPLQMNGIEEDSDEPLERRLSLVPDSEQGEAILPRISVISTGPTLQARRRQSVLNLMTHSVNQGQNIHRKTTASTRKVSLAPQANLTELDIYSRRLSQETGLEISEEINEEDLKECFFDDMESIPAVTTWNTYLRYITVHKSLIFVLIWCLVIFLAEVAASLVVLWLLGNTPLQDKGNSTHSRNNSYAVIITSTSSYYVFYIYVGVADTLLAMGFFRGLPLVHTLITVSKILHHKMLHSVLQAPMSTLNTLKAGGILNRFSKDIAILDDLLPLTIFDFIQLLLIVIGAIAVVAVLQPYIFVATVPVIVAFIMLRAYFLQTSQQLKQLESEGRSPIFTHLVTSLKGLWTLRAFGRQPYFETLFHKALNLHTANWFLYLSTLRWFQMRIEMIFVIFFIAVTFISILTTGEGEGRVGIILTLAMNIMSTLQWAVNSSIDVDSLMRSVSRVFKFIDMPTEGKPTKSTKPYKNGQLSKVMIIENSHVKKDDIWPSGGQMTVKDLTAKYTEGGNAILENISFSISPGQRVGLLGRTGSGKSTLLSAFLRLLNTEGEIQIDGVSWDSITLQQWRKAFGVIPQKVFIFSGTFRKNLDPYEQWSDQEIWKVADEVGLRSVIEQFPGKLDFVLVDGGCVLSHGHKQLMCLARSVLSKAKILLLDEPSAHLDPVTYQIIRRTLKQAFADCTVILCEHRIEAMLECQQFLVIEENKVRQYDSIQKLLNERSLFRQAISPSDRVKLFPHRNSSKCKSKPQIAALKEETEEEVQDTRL

pEC50 | Emax [%] | % Activity / % Efficacy (relative efficacy) | Structure (SMILES)
> 5.00 | > 100 |  | O=C(Nc1ncc(C(c2cccc(Cl)c2)N2CC[C@@H](O)C2)s1)C1(c2ccc3c(c2)OCO3)CC1 (some centres unmarked) [Example 343]
4.60 to 5.00 | 25 to 100 |  | O=C(Nc1nnc(-c2ccccc2)s1)C1(c2ccc3c(c2)OCO3)CC1 [Example 293]
> 5.00 |  | ++ (“++” means between 25% to 100%) | COc1ccc(C2(C(=O)Nc3ncc(CCc4ccccc4OC)s3)CC2)cc1 [Example 194]
> 5.00 | > 100 |  | O=C(Nc1ncc(C(c2ccccc2Cl)N2CC[C@@H](O)C2)s1)C1(c2ccc(C(F)(F)F)cc2)CC1 (some centres unmarked) [Example 445]
> 5.00 | > 100 |  | O=C(Nc1ncc(C(OCC2CCOC2)c2ccccc2Cl)s1)C1(c2ccc3c(c2)OCO3)CC1 (centres unmarked) [Example 258]
> 5.00 |  | +++ (“+++” means>100%) | CC(=O)c1sc(NC(=O)C2(c3ccc4c(c3)OCO4)CC2)nc1C [Example 107]
> 5.00 | > 100 |  | Cc1ccccc1C1(C(=O)Nc2ncc(C(c3ccccc3Cl)N3CC[C@@H](O)C3)s2)CC1 (some centres unmarked) [Example 444]
> 5.00 | > 100 |  | NC(=O)C1CCCN1C(Cc1ccccc1Cl)c1cnc(NC(=O)C2(c3ccc4c(c3)OCO4)CC2)s1 (centres unmarked) [Example 458]
> 5.00 | > 100 |  | COC[C@H]1CCCN1C(Cc1ccccc1Cl)c1cnc(NC(=O)C2(c3ccc4c(c3)OCO4)CC2)s1 (some centres unmarked) [Example 455]
4.60 to 5.00 | 25 to 100 |  | COc1nonc1NC(=O)C1(c2ccc3c(c2)OCO3)CC1 [Example 292]
> 5.00 | > 100 |  | CC1(C)CC(NC(c2cnc(NC(=O)C3(c4ccc5c(c4)OCO5)CC3)s2)c2ccccc2Cl)CCO1 (centres unmarked) [Example 429]
> 5.00 |  | ++ (“++” means between 25% to 100%) | O=C(Nc1ncc(C(NCCN2CCOCC2)c2ccccc2Cl)s1)C1(c2ccc3c(c2)OCO3)CC1 (centres unmarked) [Example 188]
> 5.00 | > 100 |  | COc1ccccc1C(c1cnc(NC(=O)C2(c3ccc4c(c3)OCO4)CC2)s1)N1CCOCC1 (centres unmarked) [Example 399]
> 5.00 | > 100 |  | COc1ccccc1C(c1cnc(NC(=O)C2(c3ccc4c(c3)OCO4)CC2)s1)N1CCCC1 (centres unmarked) [Example 354]
4.60 to 5.00 | > 100 |  | C/C=C/c1cnc(NC(=O)C2(c3ccc4c(c3)OCO4)CC2)s1 [Example 386]
4.60 to 5.00 | 25 to 100 |  | O=C(Nc1nn(-c2ccccc2)cc1-c1cccs1)C1(c2ccc3c(c2)OCO3)CC1 [Example 286]
> 5.00 | > 100 |  | O=C(Nc1cnc(Cc2ccccc2Cl)s1)C1(c2ccc3c(c2)OCO3)CC1 [Example 267]
4.60 to 5.00 | > 100 |  | CCC(c1cnc(NC(=O)C2(c3ccc4c(c3)OCO4)CC2)s1)N1CCC[C@H]1COC (some centres unmarked) [Example 404]
4.60 to 5.00 | > 100 |  | CC(C)(C)C(c1cnc(NC(=O)C2(c3ccc4c(c3)OCO4)CC2)s1)N1CCC[C@H]1C(N)=O (some centres unmarked) [Example 384]
> 5.00 |  | +++ (“+++” means>100%) | COc1ccc(CC2(C(=O)Nc3ncc(Cc4ccccc4OC)s3)CC2)cc1 [Example 200]
> 5.00 |  | +++ (“+++” means>100%) | CN(C)CCNC(c1cnc(NC(=O)C2(c3ccc4c(c3)OCO4)CC2)s1)c1ccccc1Cl (centres unmarked) [Example 187]
4.60 to 5.00 | 25 to 100 |  | O=C(Nc1ncc(Cc2ccccc2Cl)s1)C1(c2ccc(N3CCOCC3)cc2)CC1 [Example 313]
> 5.00 |  | +++ (“+++” means>100%) | CCOC(=O)c1nc(NC(=O)C2(c3ccc(OC)cc3)CC2)sc1Cc1ccccc1OC [Example 195]
> 5.00 | > 100 |  | O=C(Nc1ncc(C(c2ccccc2Cl)N2CC[C@@H](O)C2)s1)C1(c2ccc3c(c2)OC(F)(F)O3)CC1 (some centres unmarked) [Example 492]
> 5.00 | 25 to 100 |  | O=C(Nc1ncc(Cc2ccccc2Cl)s1)C1(c2cccc(N3CCOCC3)c2)CC1 [Example 315]

pEC50 | Emax [%] | % Activity / % Efficacy (relative efficacy) | Structure (SMILES)
> 5.00 |  | +++ (“+++” means>100%) | O=C(Nc1ncc(Oc2ccccc2Cl)s1)C1(c2ccc3c(c2)OCO3)CC1 [Example 93]
> 5.00 | > 100 |  | CN(C1CCCCC1)C(c1cnc(NC(=O)C2(c3ccc4c(c3)OCO4)CC2)s1)c1ccccc1Cl (centres unmarked) [Example 413]
> 5.00 |  | +++ (“+++” means>100%) | CC(C)OC(c1cnc(NC(=O)C2(c3ccc4c(c3)OCO4)CC2)s1)c1ccccc1Cl (centres unmarked) [Example 261]
> 5.00 | 25 to 100 |  | COc1ccccc1C1(C(=O)Nc2ncc(C(c3ccccc3Cl)N3CC[C@@H](O)C3)s2)CC1 (some centres unmarked) [Example 443]
> 5.00 | > 100 |  | COc1ccccc1C1(C(=O)Nc2ncc(Cc3ccccc3Cl)s2)CC1 [Example 65]
> 5.00 |  | +++ (“+++” means>100%) | COc1ccccc1Cc1cnc(NC(=O)C2(c3ccc(F)c(F)c3)CC2)s1 [Example 198]
> 5.00 |  | +++ (“+++” means>100%) | CCOC(=O)c1nc(NC(=O)C2(c3ccc4c(c3)OCO4)CC2)sc1Cc1ccccc1OC [Example 202]
> 5.00 | > 100 |  | O=C(Nc1ncc(C(c2ccccc2)N2CCCCC2)s1)C1(c2ccc3c(c2)OCO3)CC1 (centres unmarked) [Example 371]
> 5.00 | > 100 |  | COCC1CCCN1C(c1cccc(OC)c1)c1cnc(NC(=O)C2(c3ccc4c(c3)OCO4)CC2)s1 (centres unmarked) [Example 353]
> 5.00 |  | ++ (“++” means between 25% to 100%) | COc1ccccc1Cc1cnc(NC(=O)C2(c3ccccc3OC)CC2)s1 [Example 70]
> 5.00 | > 100 |  | O=C(Nc1ncc(C(NCCO)c2ccccc2Cl)s1)C1(c2ccc3c(c2)OCO3)CC1 (centres unmarked) [Example 416]
> 5.00 | 25 to 100 |  | COc1ccc(C2(C(=O)Nc3nc4ccc(Cl)cc4s3)CC2)cc1 [Example 47]
> 5.00 |  | +++ (“+++” means>100%) | COc1ccc(OC)c(-c2csc(NC(=O)C3(c4ccc5c(c4)OCO5)CC3)n2)c1 [Example 113]
> 5.00 |  | +++ (“+++” means>100%) | O=C(c1cnc(NC(=O)C2(c3ccc4c(c3)OCO4)CC2)s1)c1ccccc1Cl [Example 136]
> 5.00 | > 100 |  | O=C(Nc1ncc(C(c2ccccc2C(F)(F)F)N2CCCC2)s1)C1(c2ccc3c(c2)OCO3)CC1 (centres unmarked) [Example 468]
4.60 to 5.00 | > 100 |  | CCC(c1cnc(NC(=O)C2(c3ccc4c(c3)OCO4)CC2)s1)N1CCC[C@@H]1COC (some centres unmarked) [Example 401]
4.60 to 5.00 | > 100 |  | O=C(Nc1ncc(C(c2ccccc2)N2CC[C@@H](O)C2)s1)C1(c2ccc3c(c2)OCO3)CC1 (some centres unmarked) [Example 368]
4.60 to 5.00 | > 100 |  | COc1cccc(C(c2cnc(NC(=O)C3(c4ccc5c(c4)OCO5)CC3)s2)N(C)C)c1 (centres unmarked) [Example 366]
4.60 to 5.00 | > 100 |  | CN(C)C(c1cnc(NC(=O)C2(c3ccc4c(c3)OCO4)CC2)s1)C(C)(C)C (centres unmarked) [Example 395]
> 5.00 |  | +++ (“+++” means>100%) | O=C(Nc1ncc(Cc2ccccc2Cl)s1)C1(c2ccc(F)c(F)c2)CC1 [Example 199]
4.60 to 5.00 | 25 to 100 |  | O=C(Nc1ncc(CN2CC[C@@H](O)C2)s1)C1(c2ccc3c(c2)OCO3)CC1 [Example 319]
> 5.00 | > 100 |  | CCN(CC)C(c1cnc(NC(=O)C2(c3ccc4c(c3)OCO4)CC2)s1)c1ccccc1OC (centres unmarked) [Example 365]
> 5.00 |  | +++ (“+++” means>100%) | COc1ccccc1CCc1cnc(NC(=O)C2(c3ccc4c(c3)OCO4)CC2)s1 [Example 197]
> 5.00 | > 100 |  | O=C(Nc1ncc(C(NC(CO)CO)c2ccccc2Cl)s1)C1(c2ccc3c(c2)OCO3)CC1 (centres unmarked) [Example 433]
4.60 to 5.00 | > 100 |  | O=C(Nc1ncc(C(c2ccccc2Cl)N2CC[C@@H](O)C2)s1)C1(c2ccc(F)cc2)CC1 (some centres unmarked) [Example 421]

Structure (SMILES) | pEC50 | Emax [%] | % Activity / % Efficacy (relative efficacy)
O=C(Nc1ncc(C(SCCCCO)c2ccccc2Cl)s1)C1(c2ccc3c(c2)OCO3)CC1 (centres unmarked) [Example 131] | > 5.00 |  | 
